# According to the supplement of paper PMC10307832:
# Experiments:
# Assay in all cases: relative viability (nuclei count vs DMSO), 5 days (fraction); higher = more cells survive
# Sulindac + Linsitinib = compound: CC1=C(CC(=O)O)c2cc(F)ccc2/C1=C\c1ccc([S+](C)[O-])cc1 [Sulindac] + C[C@]1(O)C[C@@H](c2nc(-c3ccc4ccc(-c5ccccc5)nc4c3)c3c(N)nccn32)C1 [Linsitinib] (partner 1 µM)
# In short: (§1)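 Nuclei were stained with Hoechst during a one-step fixation (final 0.05% Triton X-100, 1% formaldehyde, 1 ug/ml Hoechst) carried out 5 days after dosing, then counted on 4× images. The cells, lung cancer lines in 1536-well plates, had been dosed by pin tool the day after seeding with one drug alone or a fixed anchor-drug dose plus five library-drug doses (not always all listed) in √10 steps. Relative viability is the nuclei count in treated wells divided by that in vehicle wells, and each value is the median of duplicate plates.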
# Sulindac + Decitabine = compound: CC1=C(CC(=O)O)c2cc(F)ccc2/C1=C\c1ccc([S+](C)[O-])cc1 [Sulindac] + Nc1ncn([C@H]2C[C@H](O)[C@@H](CO)O2)c(=O)n1 [Decitabine] (partner 2 µM)
# In short: as §1
# Staurosporine + OSI-027 = compound: CN[C@@H]1C[C@H]2O[C@@](C)([C@@H]1OC)n1c3ccccc3c3c4c(c5c6ccccc6n2c5c31)C(=O)NC4 [Staurosporine] + COc1cccc2cc(-c3nc([C@H]4CC[C@H](C(=O)O)CC4)n4ncnc(N)c34)[nH]c12 [OSI-027] (partner 0.5 µM)
# In short: as §1
# [1] = compound: O=c1[nH]cc(F)c(=O)[nH]1 [5-Fluorouracil] + COc1cc2c(Oc3ccc(NC(=O)C4(C(=O)Nc5ccc(F)cc5)CC4)cc3F)ccnc2cc1OCCCN1CCOCC1 [Foretinib] (partner 0.25 µM)
# In short: as §1
cell line,measurement,setting,value
UMC-11,relative viability,Sulindac + Linsitinib; first compound 0.08 µM,1.27
same,relative viability,Sulindac + Linsitinib; first compound 0.253 µM,1.02
same,relative viability,Sulindac + Linsitinib; first compound 0.8 µM,0.815
same,relative viability,Sulindac + Linsitinib; first compound 2.53 µM,1.06
same,relative viability,Sulindac + Linsitinib; first compound 8 µM,1.07
same,relative viability,Sulindac + Decitabine; first compound 0.08 µM,0.595
same,relative viability,Sulindac + Decitabine; first compound 0.253 µM,0.627
same,relative viability,Sulindac + Decitabine; first compound 0.8 µM,0.535
same,relative viability,Sulindac + Decitabine; first compound 2.53 µM,0.584
same,relative viability,Sulindac + Decitabine; first compound 8 µM,0.65
same,relative viability,Staurosporine + OSI-027; first compound 0.005 µM,0.5
same,relative viability,Staurosporine + OSI-027; first compound 0.01581 µM,0.151
same,relative viability,Staurosporine + OSI-027; first compound 0.05 µM,0.138
same,relative viability,Staurosporine + OSI-027; first compound 0.1581 µM,0.133
same,relative viability,Staurosporine + OSI-027; first compound 0.5 µM,0.116
same,relative viability,[1]; first compound 0.02 µM,0.983
same,relative viability,[1]; first compound 0.2 µM,0.728
same,relative viability,[1]; first compound 0.6325 µM,0.518
same,relative viability,[1]; first compound 2 µM,0.396
